Source: patent publication US5171750A (priority 1991, dated 1992)
Read-outs that look alike come from different tables or passages of the source.

Key:
[1] = biological target: plasma BChE (Homo sapiens, UniProt P06276); test: biochemical
[2] = biological target: human erythrocyte AChE (Homo sapiens, UniProt P22303); test: biochemical; assay type: biochemical
[3] = tested on: neuromuscular AChR; conditions: cited from earlier work

human erythrocyte AChE, sequence (P22303-2 with tags, fused parts or gaps limits assumed): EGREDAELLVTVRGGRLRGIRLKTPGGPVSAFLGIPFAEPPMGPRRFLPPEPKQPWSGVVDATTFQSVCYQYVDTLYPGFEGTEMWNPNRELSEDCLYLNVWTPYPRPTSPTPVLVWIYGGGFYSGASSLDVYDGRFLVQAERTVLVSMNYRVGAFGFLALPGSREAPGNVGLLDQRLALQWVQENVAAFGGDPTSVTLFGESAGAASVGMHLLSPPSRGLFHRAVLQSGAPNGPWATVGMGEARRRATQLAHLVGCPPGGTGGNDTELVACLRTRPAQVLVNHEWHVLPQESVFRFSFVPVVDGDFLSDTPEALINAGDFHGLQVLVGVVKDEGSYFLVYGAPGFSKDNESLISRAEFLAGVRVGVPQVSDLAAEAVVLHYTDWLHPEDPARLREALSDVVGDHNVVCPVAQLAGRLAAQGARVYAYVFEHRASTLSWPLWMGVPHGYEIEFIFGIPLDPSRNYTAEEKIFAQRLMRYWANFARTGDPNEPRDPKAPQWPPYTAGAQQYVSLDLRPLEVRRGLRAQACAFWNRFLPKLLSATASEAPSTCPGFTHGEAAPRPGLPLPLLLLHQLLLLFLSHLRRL
plasma BChE, sequence (P06276 29-602): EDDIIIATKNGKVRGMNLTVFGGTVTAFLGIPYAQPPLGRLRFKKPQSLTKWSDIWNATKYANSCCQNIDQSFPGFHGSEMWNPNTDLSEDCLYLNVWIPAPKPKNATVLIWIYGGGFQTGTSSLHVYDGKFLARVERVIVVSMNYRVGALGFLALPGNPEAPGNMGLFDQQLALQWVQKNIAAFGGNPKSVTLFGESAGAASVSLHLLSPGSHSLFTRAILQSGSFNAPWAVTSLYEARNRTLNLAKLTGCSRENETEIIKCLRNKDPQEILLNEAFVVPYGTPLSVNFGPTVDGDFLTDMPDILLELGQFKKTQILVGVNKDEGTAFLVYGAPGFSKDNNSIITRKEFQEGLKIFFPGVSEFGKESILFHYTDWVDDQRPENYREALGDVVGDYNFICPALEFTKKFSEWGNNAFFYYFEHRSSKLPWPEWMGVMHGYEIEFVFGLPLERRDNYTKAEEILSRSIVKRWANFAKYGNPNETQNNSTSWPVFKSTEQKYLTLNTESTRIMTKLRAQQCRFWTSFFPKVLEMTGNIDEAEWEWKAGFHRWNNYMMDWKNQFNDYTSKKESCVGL

## CC(C)c1ccc(NC(=O)Oc2ccc3c(c2)[C@]2(C)CCO[C@@H]2N3C)cc1 [compound 24]
[1]; read-out: IC50 for BChE (printed once as RChE)
  IC50: 16.5 nM
[2]
  enzyme selectivity / preference (AChE vs BChE), in words: reverse enzyme specificity
[2]; read-out: IC50 for AChE
  IC50: 3800 nM

## Cc1ccc(NC(=O)Oc2ccc3c(c2)[C@]2(C)CCN(C)[C@@H]2N3C)cc1 [Ex. 10, (-)-4'-methylphenylarbamoyleseroline]
[1]; pH 8, read-out: BChE IC50
  IC50: 251 ± 8.6 nM
[2]; pH 8, read-out: AChE IC50
  IC50: 139 ± 3.7 nM

## CNC(=O)Oc1ccc2c(c1)[C@]1(C)CCO[C@@H]1N2C [(3) (-)-physovenine, (-)-physovenine, reference compound]
[1]
  IC50: 3.5 ± 1.4 nM
[2]
  enzyme selectivity / preference (AChE vs BChE), in words: inhibited AChE and BChE in vitro similarly at similar concentrations
[2]; pH 8, read-out: AChE IC50
  IC50: 27.1 ± 0.8 nM

## CN1c2ccc(OC(=O)Nc3ccccc3)cc2[C@]2(C)CCO[C@H]12 [Ex. 22, phenylcarbamate of (-)-physovenol]
[1]
  IC50: 700 ± 37 nM
[2]
  enzyme selectivity / preference (AChE vs BChE), in words: high preference for Ache
[2]; AChE IC50
  IC50: 11.2 ± 2.1 nM
[2]; IC50 for AChE
  IC50: 11 nM

## Cc1ccc(NC(=O)Oc2ccc3c(c2)[C@]2(C)CCN(C)[C@@H]2N3C)c(C)c1 [Ex. 8, (-)-2'-4'-dimethylphenylcarbamoyleseroline]
[1]; pH 8, read-out: BChE IC50
  IC50: 1820 ± 558 nM
[2]
  IC50: 13.6 ± 1 nM

## CN1CC[C@@]2(C)c3cc(OC(=O)Nc4ccccc4)ccc3N(C)[C@@H]12 [Ex. 14, (-)-phenylcarbamoyleserolne]
[2]; human
  lower concentration for inhibition of AChE than of BChE: 50 times

## CN1CC[C@@]2(C)c3cc(OC(=O)Nc4ccccc4Cl)ccc3N(C)[C@@H]12 [Ex. 17, (-)-2'-chlorophenylcarbamoyleseroline]
[1]
  IC50: 1610 ± 86.4 nM
[2]
  IC50: 496 ± 28.2 nM

## Cc1ccccc1NC(=O)Oc1ccc2c(c1)[C@]1(C)CCN(C)[C@@H]1N2C [Ex. 7, (-)-2'-Methylphenylcarbamoyleseroline]
[2]; pH 8, read-out: AChE IC50
  IC50: 10.3 ± 1.6 nM

## CNC(=O)Oc1ccc2c(c1)[C@]1(C)CCN(C)[C@@H]1N2C [(1) (-)-physostigmne, (-)-physostigmine]
[3]
  properties at the neuromuscular AChR, in words: blocking properties as well as agonist properties at the neuromuscular AChR

## Cc1ccccc1NC(=O)Oc1ccc2c(c1)[C@]1(C)CCO[C@@H]1N2C [Ex. 23, (-)-5-O-(2'-Methylphenylcarbamoyl)physovenol]
[1]; pH 8, read-out: BChE IC50
  IC50: 1560 ± 120 nM
[2]; pH 8, read-out: AChE IC50
  IC50: 12.9 ± 0.8 nM

## CCc1ccccc1NC(=O)Oc1ccc2c(c1)[C@]1(C)CCN(C)[C@@H]1N2C [Ex. 12, (-)-2'-ethylphenylcarbamoyleseroline]
[1]; pH 8, read-out: BChE IC50
  IC50: 2920 ± 537 nM
[2]
  IC50: 9.7 ± 0.1 nM

## CN1CC[C@@]2(C)c3cc(OC(=O)Nc4c(Cl)cccc4Cl)ccc3N(C)[C@@H]12 [Ex. 18, (-)-2',6'-dichlorophenylcarbamoylseroline]
[1]
  IC50: 425 ± 86.4 nM
[2]
  IC50: 66.6 ± 1.8 nM

## Cc1cc(C)c(NC(=O)Oc2ccc3c(c2)[C@]2(C)CCN(C)[C@@H]2N3C)c(C)c1 [Ex. 15, (-)-(-)-2',4',6'-trimethylphenylcarbamoyleseroline]
[1]; pH 8, read-out: BChE IC50
  IC50: 3290 ± 885 nM
[2]; pH 8, read-out: AChE IC50
  IC50: 1290 ± 73.8 nM

## CCc1cccc(CC)c1NC(=O)Oc1ccc2c(c1)[C@]1(C)CCN(C)[C@@H]1N2C [Ex. 11, (-)-2',6-diethylphenylcarbamoylescroline]
[1]
  IC50: 1070 ± 48 nM
[2]; pH 8, read-out: AChE IC50
  IC50: 1490 ± 49.8 nM
